{"source": "patent US6458389B1", "about": "(priority 1997, dated 2002)", "origin": "cited, not measured here", "key": {"[1]": {"tested_on": "rats", "conditions": "rat, in vivo, iv"}, "[2]": {"tested_on": "mice", "conditions": "mice treated orally, toxic dose of 70 mg/kg"}}, "note": "Read-outs that look alike come from different tables or passages of the source."}
{"molecule": "N.N.[Cl][Pt][Cl]", "note": "[cisplatin]", "values": [{"measurement": "Urea concentrations in the blood, multiplication factor", "setting": "[1]", "result": 14}, {"measurement": "Electron microscope analysis of tissues (kidneys)", "setting": "48 hours after oral administration", "result": "only slight changes in the kidneys"}, {"measurement": "Electron microscope analysis of tissues (kidneys)", "setting": "intravenous administration", "result": "symptoms of nephrotoxicity are observable"}, {"measurement": "Histopathological change in the kidneys", "setting": "[2]", "result": "No histopathological change in the kidneys"}]}
